Each block holds one compound with its values, some of them ahead of it.
Tests used:
[1] = biological target: T1, Histone-lysine N-methyltransferase, H3 lysine-79 specific (Homo sapiens, UniProt Q8TEK3); assay: (§1) Inhibition of recombinant human His6-SUMO tagged DOT1L (1 to 416 residues) expressed in Escherichia coli BL21(DE3) at 100 uM using oligonucleosome as substrate pretreated for 15 mins followed by substrate addition measured after 60 mins in presence of [3H]SAM by liquid scintillation counting method relative to control
Target sequence in this assay (Q8TEK3 whole entry, looked up, the tested form may be a part): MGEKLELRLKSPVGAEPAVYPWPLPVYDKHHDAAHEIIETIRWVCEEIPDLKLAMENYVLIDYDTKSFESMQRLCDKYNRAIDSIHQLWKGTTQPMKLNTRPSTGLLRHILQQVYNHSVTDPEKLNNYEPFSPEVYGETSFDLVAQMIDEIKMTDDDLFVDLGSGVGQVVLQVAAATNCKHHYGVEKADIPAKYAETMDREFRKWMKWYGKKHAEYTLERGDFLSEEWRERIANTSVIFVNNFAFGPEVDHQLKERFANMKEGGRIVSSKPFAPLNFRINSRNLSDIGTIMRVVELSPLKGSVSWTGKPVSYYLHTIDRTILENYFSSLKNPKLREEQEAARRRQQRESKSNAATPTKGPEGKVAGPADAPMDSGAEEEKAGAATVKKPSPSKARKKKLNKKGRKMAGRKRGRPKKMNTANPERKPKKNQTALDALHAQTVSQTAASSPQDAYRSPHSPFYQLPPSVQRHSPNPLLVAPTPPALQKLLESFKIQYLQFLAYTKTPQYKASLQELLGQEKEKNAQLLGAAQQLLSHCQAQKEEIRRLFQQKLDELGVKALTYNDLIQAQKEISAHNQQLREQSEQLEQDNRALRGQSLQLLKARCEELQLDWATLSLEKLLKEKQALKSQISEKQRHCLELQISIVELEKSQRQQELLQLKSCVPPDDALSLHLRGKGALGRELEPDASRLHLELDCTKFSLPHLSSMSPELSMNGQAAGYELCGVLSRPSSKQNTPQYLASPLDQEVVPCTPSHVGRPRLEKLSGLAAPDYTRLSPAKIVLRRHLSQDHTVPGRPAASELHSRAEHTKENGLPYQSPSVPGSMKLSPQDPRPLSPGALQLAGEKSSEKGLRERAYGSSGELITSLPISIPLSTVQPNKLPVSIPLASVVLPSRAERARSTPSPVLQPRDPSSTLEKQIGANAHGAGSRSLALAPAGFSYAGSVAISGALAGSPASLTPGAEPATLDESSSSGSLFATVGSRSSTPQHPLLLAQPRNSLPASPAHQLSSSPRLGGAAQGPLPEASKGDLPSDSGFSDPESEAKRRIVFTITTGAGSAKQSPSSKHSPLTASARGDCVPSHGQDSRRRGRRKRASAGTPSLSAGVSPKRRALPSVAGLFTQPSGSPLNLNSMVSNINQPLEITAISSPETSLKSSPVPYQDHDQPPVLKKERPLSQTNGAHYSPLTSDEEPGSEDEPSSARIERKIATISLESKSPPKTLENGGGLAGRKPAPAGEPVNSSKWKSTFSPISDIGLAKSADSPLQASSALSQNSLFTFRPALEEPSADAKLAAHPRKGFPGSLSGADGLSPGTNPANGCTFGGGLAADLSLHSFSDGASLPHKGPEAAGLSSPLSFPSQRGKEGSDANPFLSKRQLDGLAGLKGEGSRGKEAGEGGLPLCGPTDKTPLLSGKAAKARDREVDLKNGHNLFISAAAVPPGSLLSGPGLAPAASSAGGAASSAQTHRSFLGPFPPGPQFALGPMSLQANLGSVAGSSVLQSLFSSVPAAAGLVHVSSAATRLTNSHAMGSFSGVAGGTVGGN

[2] = biological target: T1, Histone-lysine N-methyltransferase, H3 lysine-79 specific; assay: Inhibition of recombinant human His6-SUMO tagged DOT1L (1 to 416 residues) expressed in Escherichia coli BL21(DE3) using oligonucleosome as substrate measured after 30 mins in presence of SAM by AlphaLISA assay
Target sequence in this assay (Q8TEK3 whole entry, the tested form may be a part): as the sequence (Q8TEK3 whole entry, looked up, the tested form may be a part) above

[3] = biological target: T1, Histone-lysine N-methyltransferase, H3 lysine-79 specific; assay: Binding affinity to recombinant human His6-SUMO tagged DOT1L (1 to 416 residues) expressed in Escherichia coli BL21(DE3) by surface plasmon resonance method
Target sequence in this assay (Q8TEK3 whole entry, the tested form may be a part): as the sequence (Q8TEK3 whole entry, looked up, the tested form may be a part) above

[4] = biological target: T1, Histone-lysine N-methyltransferase, H3 lysine-79 specific; assay: as §1, with “50” for “100”
Target sequence in this assay (Q8TEK3 whole entry, looked up, the tested form may be a part): as above

[5] = biological target: T1, Histone-lysine N-methyltransferase, H3 lysine-79 specific; assay: as §1, with “25” for “100”
Target sequence in this assay (Q8TEK3 whole entry, looked up, the tested form may be a part): as above

[6] = biological target: T1, Histone-lysine N-methyltransferase, H3 lysine-79 specific; assay: Inhibition of recombinant human His6-SUMO tagged DOT1L (1 to 416 residues) expressed in Escherichia coli BL21(DE3) using oligonucleosome as substrate pretreated for 15 mins followed by substrate addition measured after 60 mins in presence of [3H]SAM by liquid scintillation counting method
Target sequence in this assay (Q8TEK3 whole entry, the tested form may be a part): as the sequence (Q8TEK3 whole entry, looked up, the tested form may be a part) above

MV4-11 [7] = assay: Antiproliferative activity against human MV411 cells after 72 hrs by Alamar blue assay; assay type: functional, cell-based; conditions: MV4-11, 72 h
MV4-11 [8] = assay: Cell cycle arrest in human MV411 cells assessed as accumulation at G1 phase at 50 uM after 24 hrs by propidium iodide staining based flow cytometric analysis (reference value: 40.62 to 65.56%); assay type: functional
MV4-11 [9] = assay: Cell cycle arrest in human MV411 cells assessed as accumulation at G2 phase at 50 uM after 24 hrs by propidium iodide staining based flow cytometric analysis (reference value: 4.19 to 11.88%); assay type: functional
MV4-11 [10] = assay: Cell cycle arrest in human MV411 cells assessed as accumulation at S phase at 50 uM after 24 hrs by propidium iodide staining based flow cytometric analysis (reference value: 30.25 to 47.5%); assay type: functional
MV4-11 [11] = assay: Cell cycle arrest in human MV411 cells assessed as accumulation at G1 phase at 25 uM after 24 hrs by propidium iodide staining based flow cytometric analysis (reference value: 40.62 to 65.56%); assay type: functional
MV4-11 [12] = assay: Cell cycle arrest in human MV411 cells assessed as accumulation at G2 phase at 25 uM after 24 hrs by propidium iodide staining based flow cytometric analysis (reference value: 4.19 to 11.88%); assay type: functional
MV4-11 [13] = assay: Cell cycle arrest in human MV411 cells assessed as accumulation at S phase at 25 uM after 24 hrs by propidium iodide staining based flow cytometric analysis (reference value: 30.25 to 47.5%); assay type: functional
MV4-11 [14] = assay: Cell cycle arrest in human MV411 cells assessed as accumulation at G1 phase at 12.5 uM after 24 hrs by propidium iodide staining based flow cytometric analysis (reference value: 40.62 to 65.56%); assay type: functional
MV4-11 [15] = assay: Cell cycle arrest in human MV411 cells assessed as accumulation at G2 phase at 12.5 uM after 24 hrs by propidium iodide staining based flow cytometric analysis (reference value: 4.19 to 11.88%); assay type: functional
MV4-11 [16] = assay: Cell cycle arrest in human MV411 cells assessed as accumulation at S phase at 12.5 uM after 24 hrs by propidium iodide staining based flow cytometric analysis (reference value: 30.25 to 47.5%); assay type: functional
MV4-11 [17] = assay: Induction of apoptosis in human MV411 cells assessed as viable cells at 50 uM after 48 hrs by Annexin-V-FITC/propidium iodide staining based flow cytometric method (reference value: 88.5 to 94.5%); assay type: functional; conditions: MV4-11, 48 h, read-out: Activity
MV4-11 [18] = assay: Induction of apoptosis in human MV411 cells assessed as early apoptotic cells at 50 uM after 48 hrs by Annexin-V-FITC/propidium iodide staining based flow cytometric method (reference value: 1.15 to […]); assay type: functional
MV4-11 [19] = assay: Induction of apoptosis in human MV411 cells assessed as late apoptotic cells at 50 uM after 48 hrs by Annexin-V-FITC/propidium iodide staining based flow cytometric method (reference value: 4.38 to 4.63%); assay type: functional
MV4-11 [20] = assay: Induction of apoptosis in human MV411 cells assessed as necrotic cells at 50 uM after 48 hrs by Annexin-V-FITC/propidium iodide staining based flow cytometric method (Rvb <= 0.08%); assay type: functional
MV4-11 [21] = assay: Induction of apoptosis in human MV411 cells assessed as viable cells at 25 uM after 48 hrs by Annexin-V-FITC/propidium iodide staining based flow cytometric method (reference value: 88.5 to 94.5%); assay type: functional; conditions: MV4-11, 48 h, read-out: Activity
MV4-11 [22] = assay: Induction of apoptosis in human MV411 cells assessed as early apoptotic cells at 25 uM after 48 hrs by Annexin-V-FITC/propidium iodide staining based flow cytometric method (reference value: 1.15 to […]); assay type: functional
MV4-11 [23] = assay: Induction of apoptosis in human MV411 cells assessed as late apoptotic cells at 25 uM after 48 hrs by Annexin-V-FITC/propidium iodide staining based flow cytometric method (reference value: 4.38 to 4.63%); assay type: functional
MV4-11 [24] = assay: Induction of apoptosis in human MV411 cells assessed as necrotic cells at 25 uM after 48 hrs by Annexin-V-FITC/propidium iodide staining based flow cytometric method (Rvb <= 0.08%); assay type: functional
MV4-11 [25] = assay: Induction of apoptosis in human MV411 cells assessed as viable cells at 12.5 uM after 48 hrs by Annexin-V-FITC/propidium iodide staining based flow cytometric method (reference value: 88.5 to 94.5%); assay type: functional; conditions: MV4-11, 48 h, read-out: Activity
MV4-11 [26] = assay: Induction of apoptosis in human MV411 cells assessed as early apoptotic cells at 12.5 uM after 48 hrs by Annexin-V-FITC/propidium iodide staining based flow cytometric method (reference value: 1.15 to […]); assay type: functional
MV4-11 [27] = assay: Induction of apoptosis in human MV411 cells assessed as late apoptotic cells at 12.5 uM after 48 hrs by Annexin-V-FITC/propidium iodide staining based flow cytometric method (reference value: 4.38 to 4.63%); assay type: functional
MV4-11 [28] = assay: Induction of apoptosis in human MV411 cells assessed as necrotic cells at 12.5 uM after 48 hrs by Annexin-V-FITC/propidium iodide staining based flow cytometric method (Rvb <= 0.08%); assay type: functional
MV4-11 [29] = assay: Cell cycle arrest in human MV411 cells assessed as accumulation at G1 phase after 24 hrs by propidium iodide staining based flow cytometric analysis; assay type: functional

SMILES: CN(C)c1ccc(-c2nnc3sc(/C=C/c4ccco4)nn23)cc1
inhibition [1]: 73% | IC50 [2]: 20.9 µM | Kd [3]: 9.3 µM | inhibition [4]: 60% | inhibition [5]: 56% | IC50 [6]: 20.9 µM | IC50 (MV4-11 [7]): 51.5 µM | Activity (MV4-11 [8]): 81.23% | Activity (MV4-11 [9]): 0% | Activity (MV4-11 [10]): 17.77% | Activity (MV4-11 [11]): 70.9% | Activity (MV4-11 [12]): 3.64% | Activity (MV4-11 [13]): 25.46% | Activity (MV4-11 [14]): 69.4% | Activity (MV4-11 [15]): 4.64% | Activity (MV4-11 [16]): 25.96% | viability at 50 µM (MV4-11 [17]): 0.83% | Activity (MV4-11 [18]): 49.3% | Activity (MV4-11 [19]): 49.8% | Activity (MV4-11 [20]): 0.09% | viability at 25 µM (MV4-11 [21]): 22.2% | Activity (MV4-11 [22]): 35.4% | Activity (MV4-11 [23]): 42.4% | Activity (MV4-11 [24]): 0.04% | viability at 12.5 µM (MV4-11 [25]): 91.6% | Activity (MV4-11 [26]): 2.01% | Activity (MV4-11 [27]): 6.29% | Activity (MV4-11 [28]): 0.05% | Activity (MV4-11 [29]): Dose-dependent effect

SMILES: Cc1occc1-c1nnc2sc(CCc3ccccc3)nn12
inhibition [1]: 27% | inhibition [4]: 11%

SMILES: Cc1occc1-c1nnc2sc(CCCc3ccccc3)nn12
inhibition [1]: 41% | inhibition [4]: 17%

SMILES: COc1ccccc1/C=C/c1nn2c(-c3ccc(N(C)C)cc3)nnc2s1
inhibition [1]: 53% | inhibition [4]: 53% | inhibition [5]: 38.5%

SMILES: Cc1cccc(-c2nnc3sc(/C=C/c4ccco4)nn23)c1
inhibition [1]: 74% | Kd [3]: 1.21 µM | inhibition [4]: 69% | inhibition [5]: 66.6% | IC50 [6]: 9.41 µM | IC50 (MV4-11 [7]): 124 µM

SMILES: Cc1occc1-c1nnc2sc(Cc3ccccc3)nn12
inhibition [1]: 24% | inhibition [4]: 13%

SMILES: C(=C\c1nn2c(N3CCOCC3)nnc2s1)/c1ccco1
inhibition [1]: 65% | inhibition [4]: 55% | inhibition [5]: 45%

SMILES: Fc1ccc(-c2nnc3sc(/C=C/c4ccco4)nn23)cc1
inhibition [1]: 40% | inhibition [4]: 44%

SMILES: COc1cc(-c2nnc3sc(/C=C/c4ccco4)nn23)cc(OC)c1OC
inhibition [1]: 60% | inhibition [4]: 53% | inhibition [5]: 48.1%

SMILES: C(=C\c1nn2c(-c3ccccc3)nnc2s1)/c1ccco1
inhibition [1]: 81% | Kd [3]: 4.78 to 4.87 µM | inhibition [4]: 79% | inhibition [5]: 79.4% | IC50 [6]: 7.01 µM | IC50 (MV4-11 [7]): 64.7 µM

SMILES: Fc1cccc(-c2nnc3sc(/C=C/c4ccco4)nn23)c1
inhibition [1]: 29% | inhibition [4]: 22%

Further lines, results first:

inhibition [1]: 50% | inhibition [4]: 43%
SMILES: Fc1cccc(-c2nnc3sc(CCc4ccccc4)nn23)c1

inhibition [1]: 82% | Kd [3]: 7.4 µM | inhibition [4]: 67% | inhibition [5]: 54% | IC50 [6]: 13.7 µM | IC50 (MV4-11 [7]): 66.5 µM
SMILES: C(=C\c1nn2c(-c3ccncc3)nnc2s1)/c1ccco1

inhibition [1]: 77% | inhibition [4]: 59% | inhibition [5]: 43%
SMILES: c1ccc2c(Cc3nn4c(-c5ccoc5)nnc4s3)cccc2c1

inhibition [1]: 72% | inhibition [4]: 68% | inhibition [5]: 40.2%
SMILES: C(=C\c1nn2c(C3CCCCC3)nnc2s1)/c1ccco1

inhibition [1]: 59% | inhibition [4]: 51% | inhibition [5]: 48.5%
SMILES: COc1cccc(-c2nnc3sc(/C=C/c4ccco4)nn23)c1

IC50 [2]: 33.7 µM
SMILES: Nc1ncnc2c1ncn2[C@@H]1O[C@H](C[C@@H](N)CC[C@H](N)C(=O)O)[C@@H](O)[C@H]1O [SINEFUNGIN]

inhibition [1]: 88% | inhibition [4]: 71% | inhibition [5]: 9%
SMILES: C(=C\c1nn2c(-c3cc4ccccc4o3)nnc2s1)/c1ccco1
